Assay: Estimate of skin flux required to deliver therapeutically effective amounts of alprazolam transdermally
Settings: practical skin area (less than about 100 cm^2); estimated from published pharmacokinetic data
Method: Based on the published pharmacokinetic data on alprazolam, applicants estimated that skin flux in the range of at least about 1 μg/cm^2 /hr would be required to deliver therapeutically effective amounts of alprazolam transdermally through a practical skin area (i.e., less than about 100 cm^2). However, when applicants measured the in vitro flux of alprazolam through skin from a propylene glycol solution, they found the flux was several-fold less than the flux required to deliver a therapeutic amount of the drug through such an area of skin. […]

## Cc1nnc2n1-c1ccc(Cl)cc1C(c1ccccc1)=NC2 [Alprazolam, 8-chloro-1-methyl-6-phenyl-4H-1,2,4-triazolo(4,3-a)(1,4)benzodiazepine]
  skin flux required to deliver therapeutically effective amounts transdermally: at least 1 μg/cm^2 /hr

Reference: patent US5378473A, “Transdermal administration of short or intermediate half-life benzodiazepines” (Cygnus Therapeutic Systems, priority 1993, dated 1995)
